Laboratory results reported in patent US12492188B2, “1H-benzo[D]imidazole derivatives as TLR9 inhibitors for the treatment of fibrosis” (BRISTOL-MYERS SQUIBB COMPANY, priority 2020, dated 2025).
Like-named read-outs stand apart in the source and are kept apart here.

Target: T1, human TLR9 (Homo sapiens, UniProt Q9NR96)
T1 construct: host or cells: HEK-Blue cells (HEK293-derived reporter line)
T1 sequence (Q9NR96 26-1032): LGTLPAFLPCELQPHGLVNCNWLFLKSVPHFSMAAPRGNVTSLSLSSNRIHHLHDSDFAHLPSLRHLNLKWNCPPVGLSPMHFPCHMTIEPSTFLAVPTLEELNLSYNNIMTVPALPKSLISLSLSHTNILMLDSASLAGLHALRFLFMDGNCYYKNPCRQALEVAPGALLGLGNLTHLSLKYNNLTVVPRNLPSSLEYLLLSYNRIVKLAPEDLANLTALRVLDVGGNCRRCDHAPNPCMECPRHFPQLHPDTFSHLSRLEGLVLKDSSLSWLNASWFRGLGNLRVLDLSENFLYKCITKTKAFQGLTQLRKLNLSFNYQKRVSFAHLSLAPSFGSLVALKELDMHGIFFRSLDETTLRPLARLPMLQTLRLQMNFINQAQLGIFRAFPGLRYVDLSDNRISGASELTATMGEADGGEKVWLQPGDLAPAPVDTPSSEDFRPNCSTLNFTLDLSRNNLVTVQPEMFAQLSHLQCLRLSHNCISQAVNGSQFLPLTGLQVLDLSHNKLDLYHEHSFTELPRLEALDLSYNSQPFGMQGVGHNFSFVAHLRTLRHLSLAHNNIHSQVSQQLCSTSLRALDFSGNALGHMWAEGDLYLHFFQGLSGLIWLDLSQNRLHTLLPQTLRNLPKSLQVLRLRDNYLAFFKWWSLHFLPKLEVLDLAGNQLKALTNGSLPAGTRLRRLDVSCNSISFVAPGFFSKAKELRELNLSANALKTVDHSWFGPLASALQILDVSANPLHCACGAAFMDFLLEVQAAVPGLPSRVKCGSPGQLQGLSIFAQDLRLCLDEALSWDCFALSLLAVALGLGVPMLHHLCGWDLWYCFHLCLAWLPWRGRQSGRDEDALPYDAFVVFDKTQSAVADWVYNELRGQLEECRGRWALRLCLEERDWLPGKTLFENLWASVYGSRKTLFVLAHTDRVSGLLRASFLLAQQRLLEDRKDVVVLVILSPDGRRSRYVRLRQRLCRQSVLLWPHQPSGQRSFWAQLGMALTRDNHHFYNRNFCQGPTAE
Assay: TLR9 inhibition reporter assay (HEK-Blue cells, secreted embryonic alkaline phosphatase reporter)
Assay type: cell-based
Description: TLR7/8/9 Inhibition Reporter Assays
HEK-Blue™-cells (Invivogen) overexpressing human TLR7, TLR8 or TLR9 receptors were used for screening inhibitors of these receptors using an inducible SLAP (secreted embryonic alkaline phosphatase) reporter gene under the control of the […] minimal promoter fused to five NF-κB and AP-1-binding sites. Briefly, cells are seeded into Greiner 384 well plates (15000 cells per well for TLR7, 20,000 for TLR8 and 25,000 for TLR9) and then treated with test compounds in DMSO to yield a final dose response concentration range of 0.05 nM-50 μM. After a 30 minute compound pre-treatment at room temperature, the cells are then stimulated with a TLR7 ligand (gardiquimod at a final concentration of 7.5 μM), TLR8 ligand (R848 at a final concentration of 15.9 μM) or TLR9 ligand (ODN2006 at a final concentration of 5 nM) to activate NF-κB and AP-1 which induce the production of SLAP. After a 22 hour incubation at 37° C., […], SLAP levels are determined with the addition of HEK-Blue™ Detection reagent (Invivogen), a cell culture medium that allows for detection of SLAP, according to manufacturer's specifications. The percent inhibition is determined as the […] in the HEK-Blue signal present in wells treated with agonist plus DMSO alone compared to wells treated with a known inhibitor.

[1] = HEK-Blue cells overexpressing human TLR9, stimulated with ODN2006 5 nM, 22 hour incubation, reporter readout
[2] = HEK-Blue cells overexpressing human TLR9, stimulated with ODN2006 5 nM, read-out: TLR 9 IC50

Row | IC50 [1] [nM] | IC50 [2] [nM] | IC50 [nM] | IC50 (HEK-Blue human TLR9 reporter cells) [nM] | SMILES
1 | 890 | 889 | – | – | Cc1cc(C2CCN(C3CC4CCC(C3)N4C3CCC3)CC2)cc2c1nc(-c1ccc(S(C)(=O)=O)c(F)c1)n2C (single isomer, unassigned) [Example 123, 6-(1-(8-cyclobutyl-8-azabicyclo[3.2.1]octan-3-yl)piperidin-4-yl)-2-(3-fluoro-4-(methylsulfonyl)phenyl)-1,4-dimethyl-1H-benzo[d]imidazole]
2 | – | 32 | 32 | – | COc1ccc(-c2nc3c(C)cc(C4CCN(C5CC6CCC(C5)N6CC5CCC5)CC4)cc3n2C)cc1OC (single isomer, unassigned) [Example 150, 6-(1-(8-(cyclobutylmethyl)-8-azabicyclo[3.2.1]octan-3-yl)piperidin-4-yl)-2-(3,4-dimethoxyphenyl)-1,4-dimethyl-1H-benzo[d]imidazole]
3 | – | 172 | 170 | – | COc1ccc(-c2nc3c(C)cc(C4CCN(C5CC6CCC(C5)N6CC5CCC5)CC4)cc3n2C)cc1OC (single isomer, unassigned) [Example 151, 6-(1-(8-(cyclobutylmethyl)-8-azabicyclo[3.2.1]octan-3-yl)piperidin-4-yl)-2-(3,4-dimethoxyphenyl)-1,4-dimethyl-1H-benzo[d]imidazole]
4 | – | 163 | 160 | – | Cc1cc(C2CCN(C3CC4CCC(C3)N4CC3CC3)CC2)cc2c1nc(-c1ccc(S(C)(=O)=O)cc1)n2C (single isomer, unassigned) [Example 155, 6-(1-(8-(cyclopropylmethyl)-8-azabicyclo[3.2.1]octan-3-yl)piperidin-4-yl)-1,4-dimethyl-2-(4-(methylsulfonyl)phenyl)-1H-benzo[d]imidazole]
5 | – | 339 | 340 | – | Cc1cc(C2CCN(C3CC4CCC(C3)N4CC3CCC3)CC2)cc2c1nc(-c1ccc(S(C)(=O)=O)cc1)n2C (single isomer, unassigned) [Example 157, 6-(1-(8-(cyclobutylmethyl)-8-azabicyclo[3.2.1]octan-3-yl)piperidin-4-yl)-1,4-dimethyl-2-(4-(methylsulfonyl)phenyl)-1H-benzo[d]imidazole]
6 | – | 41 | – | 41 | COc1cc(-c2nc3c(C)cc(C4CCN(C5CC6CCC(C5)N6C5CCC5)CC4)cc3n2C)cn2ncnc12 (single isomer, unassigned) [Example 356, 6-(6-(1-(8-cyclobutyl-8-azabicyclo[3.2.1]octan-3-yl)piperidin-4-yl)-1,4-dimethyl-1H-benzo[d]imidazol-2-yl)-8-methoxy-[1,2,4]triazolo[1,5-a]pyridine]
7 | 49 | 49 | – | – | COc1cc(-c2nc3c(C)cc(C4CCN(C5CCN(CC(C)C)CC5)CC4)cc3[nH]2)cn2ncnc12 [Example 61, 6-(6-(1′-isobutyl-[1,4′-bipiperidin]-4-yl)-4-methyl-1H-benzo[d]imidazol-2-yl)-8-methoxy-[1,2,4]triazolo[1,5-a]pyridine tris(2,2,2-trifluoroacetate)]
8 | 200 | 196 | – | – | Cc1cc(C2CCN(C3CCN(CC(C)C)CC3)CC2)cc2[nH]c(-c3ccc(OC(F)(F)F)cc3)nc12 [Example 63, 6-(1′-isobutyl-[1,4′-bipiperidin]-4-yl)-4-methyl-2-(4-(trifluoromethoxy)phenyl)-1H-benzo[d]imidazole]
9 | 91 | 91 | – | – | COc1ccc(-c2nc3c(C)cc(C4CCN(C5CCN(CC(C)C)CC5)CC4)cc3[nH]2)cc1Cl [Example 64, 2-(3-chloro-4-methoxyphenyl)-6-(1′-isobutyl-[1,4′-bipiperidin]-4-yl)-4-methyl-1H-benzo[d]imidazole]
10 | 300 | 297 | – | – | Cc1cc(C2CCN(C3CCN(CC(C)C)CC3)CC2)cc2[nH]c(-c3ccc4c(c3)OC(F)(F)O4)nc12 [Example 65, 2-(2,2-difluorobenzo[d][1,3]dioxol-5-yl)-6-(1′-isobutyl-[1,4′-bipiperidin]-4-yl)-4-methyl-1H-benzo[d]imidazole tris(2,2,2-trifluoroacetate)]
11 | 69 | 69 | – | – | Cc1cc(C2CCN(C3CCN(CC(C)C)CC3)CC2)cc2[nH]c(-c3ccc(S(C)(=O)=O)c(F)c3)nc12 [Example 66, 2-(3-fluoro-4-(methylsulfonyl)phenyl)-6-(1′-isobutyl-[1,4′-bipiperidin]-4-yl)-4-methyl-1H-benzo[d]imidazole]
12 | 44 | 44 | – | – | Cc1cc(C2CCN(C3CCN(CC(C)C)CC3)CC2)cc2[nH]c(-c3ccc(S(C)(=O)=O)c(Br)c3)nc12 [Example 67, 2-(3-bromo-4-(methylsulfonyl)phenyl)-6-(1′-isobutyl-[1,4′-bipiperidin]-4-yl)-4-methyl-1H-benzo[d]imidazole]
13 | 85 | 85 | – | – | Cc1cc(C2CCN(C3CCN(CC(C)C)CC3)CC2)cc2[nH]c(-c3ccc(C4CC4)cc3)nc12 [Example 68, 2-(4-cyclopropylphenyl)-6-(1′-isobutyl-[1,4′-bipiperidin]-4-yl)-4-methyl-1H-benzo[d]imidazole]
14 | 240 | 241 | – | – | Cc1cc(C2CCN(C3CCN(CC(C)C)CC3)CC2)cc2[nH]c(-c3ccc(OC(F)F)c(F)c3)nc12 [Example 69, 2-(4-(difluoromethoxy)-3-fluorophenyl)-6-(1′-isobutyl-[1,4′-bipiperidin]-4-yl)-4-methyl-1H-benzo[d]imidazole tris(2,2,2-trifluoroacetate)]
15 | 210 | 208 | – | – | Cc1cc(C2CCN(C3CCN(CC(C)C)CC3)CC2)cc2[nH]c(-c3nc4ccccc4s3)nc12 [Example 70, 2-(6-(1′-isobutyl-[1,4′-bipiperidin]-4-yl)-4-methyl-1H-benzo[d]imidazol-2-yl)benzo[d]thiazole tris(2,2,2-trifluoroacetate)]
16 | 1800 | 1770 | – | – | Cc1noc(C)c1-c1nc2c(C)cc(C3CCN(C4CCN(CC(C)C)CC4)CC3)cc2[nH]1 [Example 71, 4-(6-(1′-isobutyl-[1,4′-bipiperidin]-4-yl)-4-methyl-1H-benzo[d]imidazol-2-yl)-3,5-dimethylisoxazole]
17 | 88 | 88 | – | – | Cc1cc(C2CCN(C3CCN(CC(C)C)CC3)CC2)cc2[nH]c(-c3cccc4ncccc34)nc12 [Example 72, 5-(6-(1′-isobutyl-[1,4′-bipiperidin]-4-yl)-4-methyl-1H-benzo[d]imidazol-2-yl)quinoline tris(2,2,2-trifluoroacetate)]
18 | 270 | 270 | – | – | Cc1cc(C2CCN(C3CCN(CC(C)C)CC3)CC2)cc2[nH]c(-c3ccc(OC(F)(F)F)c(Cl)c3)nc12 [Example 73, 2-(3-chloro-4-(trifluoromethoxy)phenyl)-6-(1′-isobutyl-[1,4′-bipiperidin]-4-yl)-4-methyl-1H-benzo[d]imidazole tris(2,2,2-trifluoroacetate)]
19 | 37 | 37 | – | – | Cc1cc(C2CCN(C3CCN(CC(C)C)CC3)CC2)cc2[nH]c(-c3ccc4cnccc4c3)nc12 [Example 74, 6-(6-(1′-isobutyl-[1,4′-bipiperidin]-4-yl)-4-methyl-1H-benzo[d]imidazol-2-yl)isoquinoline]
20 | 63 | 63 | – | – | Cc1cc(C2CCN(C3CCN(CC(C)C)CC3)CC2)cc2[nH]c(-c3ccc(S(=O)(=O)c4ccccc4)cc3)nc12 [Example 75, 6-(1′-isobutyl-[1,4′-bipiperidin]-4-yl)-4-methyl-2-(4-(phenylsulfonyl)phenyl)-1H-benzo[d]imidazole tris(2,2,2-trifluoroacetate)]
